Measurements taken from patent publication US20060009478A1, “Methods for the treatment of back pain” (priority 2003, published 2006).

Tested on: patients with moderate to severe chronic pain due to osteoarthritis of the hip or knee
Assay: WOMAC Osteoarthritis Index (pain, stiffness, physical function subscales, total score), 3-week osteoarthritis study
Format: in vivo, human
Details: LOCF; for WOMAC osteoarthritis physical function subscale, actual value, mean / WOMAC osteoarthritis physical function subscale, actual value, median / WOMAC osteoarthritis stiffness subscale, actual value, mean / WOMAC osteoarthritis stiffness subscale, actual value, median / WOMAC osteoarthritis total score, actual value, mean / WOMAC osteoarthritis total score, actual value, median / WOMAC osteoarthritis pain subscale, actual value, mean / WOMAC osteoarthritis pain subscale, actual value, median: intent to treat population
Text: Back pain can be associated with an arthritic condition or inflammation associated with chronic conditions. […] The methods comprise administering to a human subject an amount of an opioid antagonist or the combination of an opioid agonist and an opioid antagonist that is effective to enhance potency of the agonist and/or to alleviate one or more symptoms or signs of an arthritic condition or inflammation associated with a chronic condition, including for example, as measured by a suitable index, scale or measure. The attenuation of one or more symptoms or signs of an arthritic condition or of inflammation associated with a chronic condition may be measured on the WOMAC Osteoarthritis Index or one of its subscales (in other words, the pain, stiffness, or physical function subscales of the WOMAC Osteoarthritis Index). Any suitable version of the WOMAC OA Index may be used, including, for example, Version 3.0 or Version 3.1. Any suitable scale may be used as well. The WOMAC OA Index is available in Likert and Visual Analog scaled formats, either of which may be employed in the present methods. […] The WOMAC values represent a subjective surrogate marker. Alternatively or additionally, the attenuation of one or more symptoms or signs may be measured on another suitable index, scale or measure, such the Australian/Canadian (AUSCAN) Osteoarthritis Hand Index or the Osteoarthritis Global Index (OGI). The AUSCAN 3.1 Index and User Guide are currently available from http://www.womac.org/contact/index.cfm, as are the WOMAC 3.1 Osteoarthritis Index and User Guide. Another suitable measure of attenuation is the Definition of Improvement in Rheumatoid Arthritis described in Felson et al., Arthritis & Rheumatism 38:727-735 (1995) incorporated herein by reference. This measure, which also may be designated as the ACR (American College of Rheumatology) 20 improvement, is a composite defined as both improvement of 20% in the number of tender and number of swollen joints, and a 20% improvement in three of the following five: patient global, physician global, patient pain, patient function assessment, and C-reactive protein (CRP). Another suitable measure is described by Paulus et al., Arthritis & Rheumatism 33:477-484 (1990) which is incorporated herein by reference. Paulus et al. provides a definition of improvement based on a set of measures that discriminate between active second-line drug treatment and placebo. These include a 20% improvement in morning stiffness, erythrocyte sedimentation rate (ESR), joint tenderness score, and joint swelling score and improvement by at least 2 grades on a 5-grade scale (or from grade 2 to grade 1) for patient and physician global assessments of current disease severity. Current disease severity can be measured in a variety of ways, including patient or physician global assessments, patient or physician assessments of joint tenderness, joint swelling stiffness, pain, or physical function, cytokine levels, B-cell or T-cell subtype ratios, erythrocyte sedimentation rate (ESR), or C-reactive protein. Suitable measures of attenuation of one or more symptoms or signs, of inhibiting the progression of an arthritic condition or chronic condition, or of reversing tissue or cellular damage include measuring current disease severity. Other indexes, definitions, measures, or scales may also be used for measuring attenuation of one or more symptoms or signs, inhibition of progression, or reversal of tissue or cellular damage.
A daily diary was to be utilized to record overall pain intensity (PI) and other signs and symptoms.

Compound: COc1ccc2c3c1O[C@H]1C(=O)CC[C@@]4(O)[C@@H](C2)N(C)CC[C@]314 [OXY QID, oxycodone]
- WOMAC osteoarthritis pain subscale, actual value at Week 1, mean (ITT): 263.2
- WOMAC osteoarthritis pain subscale, actual value at Week 1, median (ITT): 279.0
- WOMAC osteoarthritis physical function subscale, actual value, mean (Week 1): 891.8
- WOMAC osteoarthritis physical function subscale, actual value, median (Week 1): 930.5
- WOMAC osteoarthritis stiffness subscale, actual value, mean (Week 1): 120.3
- WOMAC osteoarthritis stiffness subscale, actual value, median (Week 1): 129.5
- WOMAC osteoarthritis total score, actual value, mean (Week 1): 1275.3
- WOMAC osteoarthritis total score, actual value, median (Week 1): 1312.5
- WOMAC osteoarthritis pain subscale, actual value, mean (Week 2): 245.0
- WOMAC osteoarthritis pain subscale, actual value, median (Week 2): 227.5
- WOMAC osteoarthritis physical function subscale, actual value, mean (Week 2): 847.6
- WOMAC osteoarthritis physical function subscale, actual value, median (Week 2): 880.0
- WOMAC osteoarthritis stiffness subscale, actual value, mean (Week 2): 111.4
- WOMAC osteoarthritis stiffness subscale, actual value, median (Week 2): 119.5
- WOMAC osteoarthritis total score, actual value, mean (Week 2): 1204.0
- WOMAC osteoarthritis total score, actual value, median (Week 2): 1222.5
- WOMAC osteoarthritis pain subscale, actual value, mean (Week 3): 238.7
- WOMAC osteoarthritis pain subscale, actual value, median (Week 3): 225.0
- WOMAC osteoarthritis physical function subscale, actual value, mean (Week 3): 820.0
- WOMAC osteoarthritis physical function subscale, actual value, median (Week 3): 867.0
- WOMAC osteoarthritis stiffness subscale, actual value, mean (Week 3): 106.3
- WOMAC osteoarthritis stiffness subscale, actual value, median (Week 3): 109.0
- WOMAC osteoarthritis total score, actual value, mean (Week 3): 1164.9
- WOMAC osteoarthritis total score, actual value, median (Week 3): 1191.0
